The target of assay [1] is Eukaryotic translation initiation factor 4H (Homo sapiens, UniProt Q15056). Description: human eIF4H binding inhibitors, primary screen, translation initiation inhibitor project, biochemical, uHTS, fluorescence polarization (AID 2012). (Polarisation of emitted light reports the rotation of a fluorescent probe.)
Assay [2] addresses Polyadenylate-binding protein 1 (Homo sapiens, UniProt P11940). Description: PABP poly(A) RNA binding inhibitors, primary screen, biochemical, fluorescence polarization, uHTS (AID 2014).
The target of assay [3] is Intestinal-type alkaline phosphatase (Homo sapiens, UniProt P09923). The experiment in a line: activation of human intestinal alkaline phosphatase – biochemical, dose response (AID 488873). It counts as functional.
In assay [4] the target is Intestinal-type alkaline phosphatase (Mus musculus, UniProt P24822). The experiment in a line: PubChem AID 488785. In kind it is functional.
Assay [5] concerns the target T1, SUMO-activating enzyme (Homo sapiens, UniProt Q9UBT2). The experiment in a line: SUMOylation inhibitor hit validation, confirmation, SUMOylation inhibitor project, biochemical, AlphaScreen (AID 2018). In kind it is functional. (Alpha assays give light when donor and acceptor beads are brought close together.)
The target in another assay is Phospholipase A2 (Homo sapiens, UniProt P04054). It counts as functional.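 Further: confirmatory dose-response counterscreen on phospholipase A2, testing hits that came from an ultra-high-throughput screen for ATG4B inhibitors.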
The target of another assay is T2, Cysteine protease ATG4B (Homo sapiens, UniProt Q9Y4P1).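 Further: Fluorescence-based dose-response confirmation assay measuring inhibition of ATG4B activity.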
T2 sequence (Q9Y4P1 whole entry): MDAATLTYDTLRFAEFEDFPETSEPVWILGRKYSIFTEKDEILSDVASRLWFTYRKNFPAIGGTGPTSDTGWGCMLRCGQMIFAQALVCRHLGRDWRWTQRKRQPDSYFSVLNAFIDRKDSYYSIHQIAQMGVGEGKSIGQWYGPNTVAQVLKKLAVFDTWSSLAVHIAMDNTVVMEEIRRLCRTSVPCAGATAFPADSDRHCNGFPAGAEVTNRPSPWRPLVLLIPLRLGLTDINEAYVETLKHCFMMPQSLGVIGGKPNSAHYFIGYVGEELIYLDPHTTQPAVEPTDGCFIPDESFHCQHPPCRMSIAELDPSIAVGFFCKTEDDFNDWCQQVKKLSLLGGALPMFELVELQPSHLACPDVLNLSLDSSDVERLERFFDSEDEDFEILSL
It counts as functional.

Assay [6] deals with Guanyl-specific ribonuclease T1 (Aspergillus oryzae (strain ATCC 42149 / RIB 40), UniProt P00651). The experiment in a line: RNase T1 inhibitors, dose response, counter-screen for TPT1 inhibitor project, biochemical, fluorescence polarization, 1536-well (AID 2167). (The purpose of a counterscreen is to sort out artefacts and off-target activity.)
Assay [7] concerns the target T1, SUMO-activating enzyme. The experiment in a line: inhibitors of in vitro SUMOylation cascade, primary screen, biochemical, HTRF, uHTS (AID 2006). It counts as protein-complex assay.
Assay [8] concerns the target Induced myeloid leukemia cell differentiation protein Mcl-1 (Homo sapiens, UniProt Q07820). It counts as functional.
Assay [9] concerns the target Likely tRNA 2'-phosphotransferase (Candida albicans (strain SC5314 / ATCC MYA-2876) (Yeast), UniProt Q5A7N4). Description: TPT1 tRNA phosphotransferase inhibitors, dose response, biochemical, fluorescence polarization (AID 2160).
Assay [10] deals with T3, Alkaline phosphatase, tissue-nonspecific isozyme (Homo sapiens, UniProt P05186).
T3 sequence (P05186 whole entry): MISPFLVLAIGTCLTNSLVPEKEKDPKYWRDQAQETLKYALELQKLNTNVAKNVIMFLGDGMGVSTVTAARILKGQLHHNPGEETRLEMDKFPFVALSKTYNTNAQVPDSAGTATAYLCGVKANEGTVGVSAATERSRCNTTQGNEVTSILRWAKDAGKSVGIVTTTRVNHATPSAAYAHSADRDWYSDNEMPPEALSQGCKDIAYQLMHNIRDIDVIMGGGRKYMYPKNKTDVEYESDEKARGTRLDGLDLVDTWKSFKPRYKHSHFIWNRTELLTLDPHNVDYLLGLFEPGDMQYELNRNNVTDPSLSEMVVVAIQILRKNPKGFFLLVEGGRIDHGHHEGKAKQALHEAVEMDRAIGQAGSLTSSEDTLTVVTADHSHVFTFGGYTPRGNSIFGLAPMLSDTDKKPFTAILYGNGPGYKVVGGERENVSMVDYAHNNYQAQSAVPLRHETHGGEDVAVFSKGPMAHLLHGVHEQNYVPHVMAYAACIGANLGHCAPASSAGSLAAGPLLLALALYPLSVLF
Description: TNAP enzyme inhibition by screening hits, dose response, selectivity assay for mouse IAP inhibitor project, biochemical, human TNAP, uHTS hits (AID 488906). It counts as functional.

The target of assay [11] is Photoreceptor-specific nuclear receptor (Homo sapiens, UniProt Q9Y5X4). It counts as functional.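 Further: potency for compounds that break the NR2E3 corepressor complex and count as activators.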
Assay [12] has as its target Peroxisome proliferator-activated receptor gamma/Nuclear receptor corepressor 2 (Homo sapiens, UniProt P37231+Q9Y618). In kind it is functional.
A further assay deals with Cytochrome P450 2C9 (Homo sapiens, UniProt P11712). The note with it: Potency.
Assay [13] in a line: inhibitors of SNCA 5'UTR-driven reporter translation, confirmation, H4 neuroglioma cells, luminescence (AID 1988). In kind it is functional, cell-based.
The target in assay [14] is T4, Zinc finger protein mex-5 (Caenorhabditis elegans, UniProt Q9XUB2).
T4 sequence (Q9XUB2 whole entry): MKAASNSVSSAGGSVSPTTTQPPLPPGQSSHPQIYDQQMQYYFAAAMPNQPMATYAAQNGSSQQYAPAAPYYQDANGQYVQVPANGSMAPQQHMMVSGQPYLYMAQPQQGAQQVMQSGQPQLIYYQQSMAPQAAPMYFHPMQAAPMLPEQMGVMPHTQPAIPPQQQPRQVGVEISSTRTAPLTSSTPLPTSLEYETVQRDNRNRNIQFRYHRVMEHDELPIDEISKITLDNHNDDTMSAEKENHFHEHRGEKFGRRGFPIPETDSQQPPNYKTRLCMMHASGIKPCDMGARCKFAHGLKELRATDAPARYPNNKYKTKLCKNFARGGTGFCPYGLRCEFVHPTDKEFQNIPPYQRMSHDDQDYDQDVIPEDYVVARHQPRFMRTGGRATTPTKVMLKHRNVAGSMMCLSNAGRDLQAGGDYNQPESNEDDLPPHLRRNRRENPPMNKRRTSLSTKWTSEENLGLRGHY
Description: MEX-5/TCR-2 RNA interaction inhibitors, dose response, biochemical, C. elegans, fluorescence polarization (AID 1960).

Assay [15] concerns the target T5, RNA-binding protein pos-1 (Caenorhabditis elegans, UniProt G5EF15).
T5 sequence (G5EF15 whole entry): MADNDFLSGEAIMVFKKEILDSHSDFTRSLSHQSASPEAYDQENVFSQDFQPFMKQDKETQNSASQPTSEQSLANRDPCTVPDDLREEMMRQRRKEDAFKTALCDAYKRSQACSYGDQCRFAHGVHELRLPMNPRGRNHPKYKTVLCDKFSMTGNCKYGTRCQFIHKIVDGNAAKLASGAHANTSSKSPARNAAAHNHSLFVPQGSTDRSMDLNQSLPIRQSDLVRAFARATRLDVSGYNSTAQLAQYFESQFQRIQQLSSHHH
The experiment in a line: inhibitors of POS-1/mex-3 RNA binding, dose response, biochemical, fluorescence polarization (AID 1964).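 Further: purified POS-1 fused to maltose binding protein made in E. coli; potency of compounds blocking POS-1 binding to fluorescent RNA.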

Assay [16] can be described thus: inhibitors of firefly luciferase expression or activity, dose response, H4 neuroglioma cells, luminescence (AID 1990). In kind it is functional, cell-based.
Assay [17] is described as follows: Luminescence Cell-Based Dose Response HTS to Identify Inhibitors of 5'UTR Stem-Loop Driven Prion Protein mRNA Translation in H4 Neuroglioblastoma Cells. [Related pubchem assays: 1827 (Project Summary), 1813 (Primary HTS)]. In kind it is functional.
In the next assay the target is Cytochrome P450 2D6 (Homo sapiens, UniProt P10635). The experiment in a line: qHTS Assay for Inhibitors and Substrates of Cytochrome P450 2D6. [Related pubchem assays: 410 ]. In kind it is ADME. To be noted: read-out: Potency.
The target of assay [18] is T3, Alkaline phosphatase, tissue-nonspecific isozyme.
The target in assay [19] is T6, Eukaryotic translation initiation factor 2-alpha kinase 3 (Homo sapiens, UniProt Q9NZJ5). Description: Dose response cell-based high-throughput screening assay to measure PERK inhibition. [Related pubchem assays: 1416 ]. It counts as functional.
Assay [20] addresses T6, Eukaryotic translation initiation factor 2-alpha kinase 3. The experiment in a line: Counterscreen assay for PERK inhibitors: Dose response cell-based high throughput screening assay to measure inhibition of PERK at 6 hours. [Related pubchem assays: 1522, 1416 ]. It counts as functional.
Assay [21] in a line: NIH-3T3 fibroblast cytotoxicity, dose response, cytotoxicity control, cell-based, fluorescence, Alamar Blue, secondary assay (AID 2327).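 Further: NIH-3T3 mouse fibroblasts cultured with fluconazole at 8 µg/mL.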 It counts as functional.
Assay [22] is described as follows: C. albicans growth with fluconazole, confirmation, fluorescence, retest (AID 2467). In kind it is functional, cell-based.
Assay [23] in a line: A cytotoxicity screen of small molecule inhibitors of the PhoP region in Salmonella typhi identified in the primary screen. [Related pubchem assays: 1850, 1864, 1985 ]. It counts as functional.
Assay [24] can be described thus: Luminescence Cell-Based Dose Retest to Confirm Inhibitors of Cancer Stem Cells. [Related pubchem assays (depositor defined):AID2717, AID2721]. It counts as functional. To be noted: Homo sapiens.
Assay [25] concerns the target C-C chemokine receptor type 6 (Homo sapiens, UniProt P51684). Description: CCR6 receptor antagonists, dose response, cell-based, luminescent beta-arrestin readout (AID 504728). In kind it is functional.
The target in a further assay is Beta-galactosidase (Escherichia coli, UniProt Q8VNN2). Description: beta-galactosidase enzyme inhibitors and activators, dose response, artefact control for CCR6 antagonist project, biochemical, E. coli enzyme, set 3 (AID 504712). It counts as functional.

SMILES strings stand for the structures. Active and inactive are the calls of the source.

T1 sequence (Q9UBE0 whole entry): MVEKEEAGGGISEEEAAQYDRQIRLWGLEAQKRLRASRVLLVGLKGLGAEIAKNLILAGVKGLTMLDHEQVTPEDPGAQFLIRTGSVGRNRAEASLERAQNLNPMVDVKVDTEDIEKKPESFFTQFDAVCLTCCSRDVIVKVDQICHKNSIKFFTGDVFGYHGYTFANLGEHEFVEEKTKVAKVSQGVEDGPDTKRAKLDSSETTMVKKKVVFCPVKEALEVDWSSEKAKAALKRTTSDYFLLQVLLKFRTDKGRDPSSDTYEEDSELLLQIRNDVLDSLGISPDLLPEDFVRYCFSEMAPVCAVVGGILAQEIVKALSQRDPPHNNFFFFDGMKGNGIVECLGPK
T1 sequence (Q9UBT2 whole entry): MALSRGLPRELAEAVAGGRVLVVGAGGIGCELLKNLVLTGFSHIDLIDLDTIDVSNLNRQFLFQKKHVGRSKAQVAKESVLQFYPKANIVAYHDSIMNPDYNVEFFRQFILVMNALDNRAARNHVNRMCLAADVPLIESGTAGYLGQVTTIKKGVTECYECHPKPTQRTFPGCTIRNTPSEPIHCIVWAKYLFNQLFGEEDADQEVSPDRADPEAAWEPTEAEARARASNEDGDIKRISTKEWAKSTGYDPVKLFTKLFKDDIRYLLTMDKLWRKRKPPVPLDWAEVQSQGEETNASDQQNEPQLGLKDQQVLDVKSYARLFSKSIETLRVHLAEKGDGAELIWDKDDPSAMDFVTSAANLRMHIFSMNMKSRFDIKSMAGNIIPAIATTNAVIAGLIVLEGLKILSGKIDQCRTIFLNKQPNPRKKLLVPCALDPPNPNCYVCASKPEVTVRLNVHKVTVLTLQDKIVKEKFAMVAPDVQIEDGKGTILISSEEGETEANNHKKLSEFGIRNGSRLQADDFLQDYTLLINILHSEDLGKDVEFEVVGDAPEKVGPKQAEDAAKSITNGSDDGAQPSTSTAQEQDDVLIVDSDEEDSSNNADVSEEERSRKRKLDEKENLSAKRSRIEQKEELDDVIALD
T6 sequence (Q9NZJ5 whole entry): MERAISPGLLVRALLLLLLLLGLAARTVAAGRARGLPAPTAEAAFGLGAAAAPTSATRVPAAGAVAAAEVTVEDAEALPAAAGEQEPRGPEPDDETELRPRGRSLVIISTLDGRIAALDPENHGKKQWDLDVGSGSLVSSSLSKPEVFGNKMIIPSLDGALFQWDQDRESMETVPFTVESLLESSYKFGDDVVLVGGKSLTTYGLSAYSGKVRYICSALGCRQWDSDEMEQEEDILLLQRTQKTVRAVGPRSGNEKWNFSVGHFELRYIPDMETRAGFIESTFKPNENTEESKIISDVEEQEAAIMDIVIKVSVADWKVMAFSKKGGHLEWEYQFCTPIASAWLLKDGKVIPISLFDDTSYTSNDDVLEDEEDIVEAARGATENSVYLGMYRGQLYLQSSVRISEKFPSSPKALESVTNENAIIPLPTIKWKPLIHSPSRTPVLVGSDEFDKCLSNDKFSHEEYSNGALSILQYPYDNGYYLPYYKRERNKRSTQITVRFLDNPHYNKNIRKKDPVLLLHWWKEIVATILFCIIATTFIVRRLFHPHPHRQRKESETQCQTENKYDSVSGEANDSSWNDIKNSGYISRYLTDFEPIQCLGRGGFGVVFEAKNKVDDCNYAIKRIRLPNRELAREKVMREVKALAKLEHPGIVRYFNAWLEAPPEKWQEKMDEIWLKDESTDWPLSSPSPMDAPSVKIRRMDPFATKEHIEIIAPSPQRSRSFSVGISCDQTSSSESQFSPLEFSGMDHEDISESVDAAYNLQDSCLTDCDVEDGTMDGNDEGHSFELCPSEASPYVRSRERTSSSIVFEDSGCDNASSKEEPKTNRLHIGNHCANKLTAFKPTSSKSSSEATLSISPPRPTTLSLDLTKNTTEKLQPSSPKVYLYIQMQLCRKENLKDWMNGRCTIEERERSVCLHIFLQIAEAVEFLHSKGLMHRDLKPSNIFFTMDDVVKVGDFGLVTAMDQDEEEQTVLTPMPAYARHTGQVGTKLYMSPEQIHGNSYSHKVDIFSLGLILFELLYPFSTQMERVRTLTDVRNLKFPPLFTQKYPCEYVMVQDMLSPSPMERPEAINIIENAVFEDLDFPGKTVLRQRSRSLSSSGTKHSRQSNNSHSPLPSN
Guanyl-specific ribonuclease T1, sequence (P00651 whole entry): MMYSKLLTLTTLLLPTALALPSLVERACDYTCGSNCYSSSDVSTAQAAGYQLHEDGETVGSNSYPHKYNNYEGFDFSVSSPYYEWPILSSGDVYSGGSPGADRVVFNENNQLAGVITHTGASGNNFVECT
Intestinal-type alkaline phosphatase (Mus musculus, UniProt P24822), sequence (P24822 whole entry): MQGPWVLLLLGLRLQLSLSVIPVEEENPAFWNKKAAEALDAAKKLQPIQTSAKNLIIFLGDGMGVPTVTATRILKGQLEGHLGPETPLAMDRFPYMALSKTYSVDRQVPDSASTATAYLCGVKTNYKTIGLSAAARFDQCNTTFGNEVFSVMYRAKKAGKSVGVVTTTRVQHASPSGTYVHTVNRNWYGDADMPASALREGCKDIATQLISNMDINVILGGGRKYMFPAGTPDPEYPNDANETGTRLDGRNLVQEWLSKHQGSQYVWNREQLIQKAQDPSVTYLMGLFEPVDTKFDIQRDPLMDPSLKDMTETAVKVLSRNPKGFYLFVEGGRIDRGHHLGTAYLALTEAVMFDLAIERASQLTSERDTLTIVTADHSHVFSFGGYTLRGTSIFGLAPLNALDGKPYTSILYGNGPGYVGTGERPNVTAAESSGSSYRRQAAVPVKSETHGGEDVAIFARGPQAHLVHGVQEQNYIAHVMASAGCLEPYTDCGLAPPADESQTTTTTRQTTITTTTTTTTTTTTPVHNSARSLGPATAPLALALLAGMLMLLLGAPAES
Induced myeloid leukemia cell differentiation protein Mcl-1, sequence (Q07820 whole entry): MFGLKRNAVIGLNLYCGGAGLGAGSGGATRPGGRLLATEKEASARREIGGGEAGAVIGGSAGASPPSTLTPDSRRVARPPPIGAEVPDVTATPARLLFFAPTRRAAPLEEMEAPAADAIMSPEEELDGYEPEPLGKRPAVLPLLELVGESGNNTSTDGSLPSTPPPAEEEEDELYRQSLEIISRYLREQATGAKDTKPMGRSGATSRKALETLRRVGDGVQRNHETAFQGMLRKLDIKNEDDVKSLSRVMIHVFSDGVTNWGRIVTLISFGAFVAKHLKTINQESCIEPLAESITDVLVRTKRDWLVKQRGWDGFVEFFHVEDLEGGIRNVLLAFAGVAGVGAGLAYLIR
Intestinal-type alkaline phosphatase (Homo sapiens, UniProt P09923), sequence (P09923 whole entry): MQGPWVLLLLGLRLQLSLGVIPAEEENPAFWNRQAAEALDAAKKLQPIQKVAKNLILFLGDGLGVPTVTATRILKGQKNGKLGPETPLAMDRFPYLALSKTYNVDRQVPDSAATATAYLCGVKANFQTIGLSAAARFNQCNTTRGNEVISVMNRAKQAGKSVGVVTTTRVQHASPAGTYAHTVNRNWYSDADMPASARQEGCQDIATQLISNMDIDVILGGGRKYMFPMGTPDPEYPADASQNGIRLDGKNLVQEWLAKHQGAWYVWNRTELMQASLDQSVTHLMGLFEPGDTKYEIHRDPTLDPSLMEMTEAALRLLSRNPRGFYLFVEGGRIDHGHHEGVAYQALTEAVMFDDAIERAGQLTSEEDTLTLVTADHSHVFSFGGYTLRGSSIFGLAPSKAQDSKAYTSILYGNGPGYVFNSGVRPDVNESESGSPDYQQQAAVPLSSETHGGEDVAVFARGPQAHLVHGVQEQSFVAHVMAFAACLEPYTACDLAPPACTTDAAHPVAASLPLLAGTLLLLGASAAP
Cytochrome P450 2D6, sequence (P10635 whole entry): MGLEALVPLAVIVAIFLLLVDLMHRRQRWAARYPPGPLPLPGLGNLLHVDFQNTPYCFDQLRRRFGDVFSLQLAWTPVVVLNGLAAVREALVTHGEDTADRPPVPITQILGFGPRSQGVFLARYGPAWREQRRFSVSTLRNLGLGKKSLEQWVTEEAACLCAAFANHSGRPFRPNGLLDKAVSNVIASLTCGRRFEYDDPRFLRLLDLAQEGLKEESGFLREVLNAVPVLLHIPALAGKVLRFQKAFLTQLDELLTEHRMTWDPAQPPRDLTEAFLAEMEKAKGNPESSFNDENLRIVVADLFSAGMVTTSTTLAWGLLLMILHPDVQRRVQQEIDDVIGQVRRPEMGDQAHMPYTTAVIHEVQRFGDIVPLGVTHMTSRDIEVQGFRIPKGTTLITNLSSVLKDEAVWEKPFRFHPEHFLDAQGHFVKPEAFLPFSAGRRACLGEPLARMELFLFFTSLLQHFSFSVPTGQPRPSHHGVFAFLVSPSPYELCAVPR
Phospholipase A2, sequence (P04054 whole entry): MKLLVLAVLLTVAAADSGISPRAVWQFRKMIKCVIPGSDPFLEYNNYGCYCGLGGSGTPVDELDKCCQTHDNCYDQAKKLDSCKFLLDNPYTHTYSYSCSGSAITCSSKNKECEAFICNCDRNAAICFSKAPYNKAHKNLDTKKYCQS
Photoreceptor-specific nuclear receptor, sequence (Q9Y5X4 whole entry): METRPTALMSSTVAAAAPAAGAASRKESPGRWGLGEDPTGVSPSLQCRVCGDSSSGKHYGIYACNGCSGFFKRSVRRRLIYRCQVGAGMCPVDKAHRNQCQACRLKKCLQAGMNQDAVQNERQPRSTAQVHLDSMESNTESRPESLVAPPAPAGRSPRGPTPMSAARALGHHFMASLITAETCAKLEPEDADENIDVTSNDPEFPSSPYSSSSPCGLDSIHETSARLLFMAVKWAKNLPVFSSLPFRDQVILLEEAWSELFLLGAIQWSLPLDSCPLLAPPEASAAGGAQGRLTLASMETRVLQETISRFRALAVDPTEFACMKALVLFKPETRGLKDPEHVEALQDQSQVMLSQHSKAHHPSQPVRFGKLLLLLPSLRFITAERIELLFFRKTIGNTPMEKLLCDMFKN

For the molecule `O=C(Nc1ccc2ncccc2c1)c1ccccc1`, the IC50 (as a rule, the midpoint of a concentration-inhibition curve) in assay [1] was > 100 µM (inactive); in assay [2] it was 14.2 µM (active).

Turning to `O=C(NN1C(=O)/C(=C/C=C/c2ccco2)SC1=S)c1ccncc1`, the EC50 (usually the concentration giving half of the maximal effect) in assay [3] was > 100 µM (inactive). In addition, the IC50 in [4] was 13.5 µM (active); on SUMO-activating enzyme [5], 0.53 µM (active); at Phospholipase A2, > 80 µM (inactive); at Cysteine protease ATG4B, 11.1 µM (active); in assay [6], 12.3 µM (not active); at SUMO-activating enzyme [7], 6.1 µM (active). In addition, the 50% inhibitory concentration (IC50) was 5.08 µM (active) in assay [8], 14 µM (not active) in assay [9] and > 100 µM (inactive) in [10].

For `Cc1ccc(-n2c(=S)[nH]c3c(oc4ccccc43)c2=O)cc1`, the concentration for half-maximal inhibition (IC50) in [11] was 4.75 µM (active); in assay [12] it was 6.54 µM (active).

Regarding `COc1cc2c(cc1OC)-c1c(OC)c(OC)cc3ccnc(c13)C2=O` [OXOGLAUCINE], the AC50 on Cytochrome P450 2C9 was 39.8 µM (inconclusive); on Cytochrome P450 2D6, 10 µM (inconclusive). Further, the EC50 is 7 µM (active) in assay [13]; 0.834 µM (active) in assay [14]; 68.6 µM (active) in assay [15]; > 120 µM (not active) in [16]; 9.88 µM (active) in assay [17].

Regarding `COc1cccc(N(C(=O)c2cc[nH]n2)C2(C(=O)Nc3c(C)cccc3C)CCCCC2)c1`, the EC50 in assay [18] is 52.9 µM (not active).

For `FC(F)(F)c1cccc(Oc2ccc3c(C(F)(F)F)cc(C(F)(F)F)nc3n2)c1`, the EC50 in assay [19] and in assay [20] was > 55.7 µM (not active) throughout.

For the molecule `Cc1ccc(N/N=C/c2ccncc2)cc1`, the figures for the EC50 in [21], in assay [22] and in assay [23] were 14.4 µM (active), > 38 µM (not active) and > 50 µM (active), respectively. Also, the AC50 in [24] was 4.65 µM (active).

For the molecule `CN(Cc1ccccc1)S(=O)(=O)c1ccc(NC(=S)NC(=O)C2CCCCC2)cc1`, the IC50 (in assay [25]; at Beta-galactosidase) was > 66.6 µM (inactive) each time.

The record behind these values is ChEMBL document CHEMBL1201862, “PubChem BioAssay data set” (2004).
